Holding throughout (assay type): functional, Homo sapiens
Test [1] relates to U2OS. Kind of test: (§1) Here: values are normalized to the positive (DMSO; basel flux = defined as 100% suppression) and negative (250nM Torin1; mTOR inhibitor; maximal inducer of autophagy defined as 0% suppression) control compounds and represented as % of ER-phagy suppression. […] The impact of autophagy induction on cells is complex and depends on the affected target. […] Of note, treatment concentrations may be sub-optimal for specific compounds, leading to false negative annotations. As to conditions: Compound Concentration 1 uM, Culturing Media DMEM, 1 % Penicillin/Streptomycin, 10% Fetal bovin serum Add-On: blasticidin, Screening Media Control DMEM, 10% Fetal bovin serum Add-On: 1 µg/ml Doxycyclin, Screening Media Samples DMEM, 10% Fetal bovin serum Add-On: 1 µg/ml Doxycyclin 250nM Torin1.

Test [2] has as its system U2OS. The description is as §1. As to conditions: Compound Concentration 1 uM, Culturing Media DMEM, 1 % Penicillin/Streptomycin, 10% Fetal bovin serum Add-On: blasticidin, Screening Media Control DMEM, 10% Fetal bovin serum Add-On: 1 µg/ml Doxycyclin, Screening Media Samples DMEM, 10% Fetal bovin serum Add-On: 1 µg/ml Doxycyclin 250nM Torin1. The source holds these as a separate data set.

Test [3] has as its system TERT-RPE1. Kind of test: (§2) Here: values are normalized to the negative (DMSO; defined as 0% autophagy induction) and positive (250nM Torin1; mTOR inhibitor; defined as maximal inducer of autophagy = 100%) control compounds and represented as % of autophagy induction. […] The impact of autophagy induction on cells is complex and depends on the affected target. As such, the magnitude of a phenotype may not be equally mirrored in the %-value of autophagy induction and vice versa. The dynamics of the induction may indicate the mode of activation: e.g. activation via phosphorylation or a signaling cascade may occur fast, while activation via transcription factors may take considerably longer. […] Of note, treatment concentrations may be sub-optimal for specific compounds, leading to false negative annotations. As to conditions: Culturing Media DMEM/F12 (1:1), 1 % Penicillin/Streptomycin, 10% Fetal bovin serum Add-On: No, Screening Media Control DMEM/F12 (1:1), Screening Media Samples DMEM/F12 (1:1).

Test [4] concerns U2OS. Described as §2. As to conditions: Culturing Media DMEM, 1 % Penicillin/Streptomycin, 10% Fetal bovin serum Add-On: No, Screening Media Control DMEM, Screening Media Samples DMEM.
In test [5] the test system is U2OS. The test is described as §2. As to conditions: Culturing Media DMEM, 1 % Penicillin/Streptomycin, 10% Fetal bovin serum Add-On: No, Screening Media Control DMEM, Screening Media Samples DMEM. This is another data set of the same source.
The mark [6] stands for this setting: Compound Concentration 0.5 uM, Timepoint 12 hours.
The mark [7] stands for this setting: Compound Concentration 0.5 uM, Timepoint 24 hours.
Where [8] appears, read: Compound Concentration 0.5 uM, Timepoint 36 hours.
Setting [9] is: Compound Concentration 0.5 uM, Timepoint 60 hours.
Where [10] appears, read: Compound Concentration 2 uM, Timepoint 12 hours.
The mark [11] stands for this setting: Compound Concentration 2 uM, Timepoint 24 hours.
Setting [12] is: Compound Concentration 2 uM, Timepoint 36 hours.
Setting [13] is: Compound Concentration 2 uM, Timepoint 60 hours.
[14] abbreviates: Compound Concentration 10 uM, Timepoint 12 hours.
The mark [15] stands for this setting: Compound Concentration 10 uM, Timepoint 24 hours.
[16] abbreviates: Compound Concentration 10 uM, Timepoint 36 hours.
Where [17] appears, read: Compound Concentration 10 uM, Timepoint 60 hours.

Molecules are shown by their SMILES. Where “and” joins values, the source holds several entries; their conditions need not be identical. Equal entries are not always repeated.

For `CCOc1cc(N2CCC(O)CC2)ccc1Nc1ncc2c(n1)N(C)c1ccccc1C(=O)N2C`, the ER-phagy suppression in test [1] (Timepoint 12 hours) is on record as -49.4363%; in test [1] (Timepoint 24 hours) it was -63.2462%; in test [1] (Timepoint 36 hours), -50.7543%; in test [1] (Timepoint 54 hours) it was -40.8997%; in test [2] (Timepoint 12 hours), 41.1735%; in test [2] (Timepoint 24 hours), 16.7232%. Also, the ER-phagy suppression is recorded as 17.4074% in test [2] (Timepoint 36 hours) and 10.8345% in test [2] (Timepoint 60 hours).

With `CN([C@@H](Cc1ccc(OS(=O)(=O)c2cccc3cnccc23)cc1)C(=O)N1CCN(c2ccccc2)CC1)S(=O)(=O)c1cccc2cnccc12`, the ER-phagy suppression in test [1] (Timepoint 12 hours) is -1.9452%; in test [1] (Timepoint 24 hours), -10.891%; in test [1] (Timepoint 36 hours), -4.8506%; in test [1] (Timepoint 54 hours), -2.408%; in test [2] (Timepoint 12 hours), 11.3745%; in test [2] (Timepoint 24 hours), -2.8225%. In addition, the ER-phagy suppression in test [2] (Timepoint 36 hours) is -4.115%; in test [2] (Timepoint 60 hours), -4.142%.

Consider `COc1ccccc1-c1cc(Nc2cccc(CS(N)(=O)=O)c2)ncn1`, for which the ER-phagy suppression in test [1] (Timepoint 12 hours) is -2.879%; in test [1] (Timepoint 24 hours), 2.7876%; in test [1] (Timepoint 36 hours), 9.9584%; in test [1] (Timepoint 54 hours), 17.8632%; in test [2] (Timepoint 12 hours), 64.2077%; in test [2] (Timepoint 24 hours), 50.2137%. Moreover, the ER-phagy suppression is given as 56.273% in test [2] (Timepoint 36 hours) and 39.1119% in test [2] (Timepoint 60 hours).

`Cl.Cl.Nc1nccc(-c2c(-c3ccc(F)cc3)ncn2C2CCCCC2)n1`: the ER-phagy suppression was 12.007% in test [1] (Timepoint 12 hours), 14.1245% in test [1] (Timepoint 24 hours), 19.9643% in test [1] (Timepoint 36 hours) and 25.2011% in test [1] (Timepoint 54 hours).

For the molecule `CCCSc1nc(N[C@@H]2C[C@H]2c2ccc(F)c(F)c2)c2nnn([C@@H]3C[C@H](OCCO)[C@@H](O)[C@H]3O)c2n1` [TICAGRELOR], the autophagy induction is -0.3223% and -0.8015% in test [3] (Compound Concentration 0.5 uM, Timepoint 12 hours, 12 h, 0.5 µM); 2.932% and -1.64% in test [3] (Compound Concentration 0.5 uM, Timepoint 24 hours, 24 h, 0.5 µM); 3.182% and -0.1292% in test [3] (Compound Concentration 0.5 uM, Timepoint 36 hours, 36 h, 0.5 µM); 6.614% and -2.465% in test [3] (Compound Concentration 0.5 uM, Timepoint 60 hours, 60 h, 0.5 µM); -2.164% and 3.738% in test [3] (Compound Concentration 2 uM, Timepoint 12 hours, 12 h, 2 µM); 2.13% and 2.219% in test [3] (Compound Concentration 2 uM, Timepoint 24 hours, 24 h, 2 µM). Moreover, the autophagy induction was 3.83% and 3.863% in test [3] (Compound Concentration 2 uM, Timepoint 36 hours, 36 h, 2 µM); 10.3636% and 4.688% in test [3] (Compound Concentration 2 uM, Timepoint 60 hours, 60 h, 2 µM); 2.799% and 5.117% in test [3] (Compound Concentration 10 uM, Timepoint 12 hours, 12 h, 10 µM); 8.7588% and 7.492% in test [3] (Compound Concentration 10 uM, Timepoint 24 hours, 24 h, 10 µM); 16.5266% and 7.688% in test [3] (Compound Concentration 10 uM, Timepoint 36 hours, 36 h, 10 µM); -3.602% in test [4] (setting [6]). Moreover, the autophagy induction in test [4] (setting [7]) is -3.07%; in test [4] (setting [8]), -60.4394%; in test [4] (setting [9]), -2.316%; in test [4] (setting [10]), -5.583%; in test [4] (setting [11]), -3.174%; in test [4] (setting [12]), -60.5106%. The autophagy induction was -3.163% in test [4] (setting [13]); -2.648% in test [4] (setting [14]); 1.759% in test [4] (setting [15]); -58.5177% in test [4] (setting [16]); -2.994% in test [4] (setting [17]); -9.844% in test [5] (setting [6]). The autophagy induction in test [5] (setting [7]) is on record as -12.5107%; in test [5] (setting [8]) it was -15.2375%; in test [5] (setting [9]) it was -18.2861%; in test [5] (setting [10]), 2.324%; in test [5] (setting [11]) it was -7.302%; in test [5] (setting [12]) it was -3.06%. The autophagy induction in test [5] (setting [13]) is -7.4162%; in test [5] (setting [14]) it was -4.369%; in test [5] (setting [15]), -2.6496%; in test [5] (setting [16]) it was -0.7195%; in test [5] (setting [17]), 1.979%.

On to `CCC(=O)N1CCN(c2ccc(-n3c(=O)ccc4cnc5ccc(-c6cnc7ccccc7c6)cc5c43)cc2C(F)(F)F)CC1` [TORIN1], for which the ER-phagy suppression is 3.915% in test [1] (Timepoint 12 hours), -7.7479% in test [1] (Timepoint 24 hours), -6.712% in test [1] (Timepoint 36 hours) and -3.9465% in test [1] (Timepoint 54 hours).

Values taken from ChEMBL document CHEMBL5724696, “Autophagy assay results for EUbOPEN Chemogenomics Library” (2024).
